Read-outs that look alike come from different tables or passages of the source.
Legend:
[1] = 14-day multiple dose pharmacokinetic/toxicity study, rat; assay type: in vivo, rats; conditions: for AUC∞ Ratio to Phase I / Cmax Ratio to Phase I / AUC∞ Ratio to Phase II / Cmax Ratio to Phase II: 15 mg/kg Day 14; for AUC∞ Ratio to Phase I / Cmax Ratio to Phase I: vs human 150 mg Phase I; for AUC∞ Ratio to Phase II / Cmax Ratio to Phase II: vs human 150 mg Phase II
Experimental: The pharmacokinetics of dexanabinol of high enantiomeric purity formulated in CREMOPHOR EL®:ethanol as described in Example 4 were investigated in rats, rabbits, and monkeys following intravenous administration of single doses, and 14 and 28 days of repeated dosing. Human pharmacokinetics was studied during Phase I and Phase II clinical studies. Dexanabinol used in the pharmacokinetic studies was formulated as drug concentrates of 50 and 100 mg/ml and diluted with sterile 0.9% NaCl solution prior to intravenous (i.v.) administration to the desired final doses. Determination of dexanabinol concentrations in plasma and brain extracts was carried out using a validated Gas Chromatography-Mass Spectra (GC-MS) assay following solid phase extraction of the drug and derivatization. The limit of quantitation of the assay is 0.1 ng/ml.
(§1) Pharmacokinetic parameters were estimated by a non-compartmental method using WinNonlin Professional version 3.2 (Pharsight Corp., Mountain View, Calif.). The maximum plasma concentration (Cmax), when the drug is administered by infusion, is the concentration at the end of infusion. The Cmax following intravenous bolus administration is the value estimated by the software to be the concentration at t=0. The terminal slope (X) was estimated by linear regression through the last time points and used to calculate the terminal half-life (t1/2) from the following equation: t1/2=0.693/λ The area under the curve from time of dosing through the last time point (AUCz) was calculated by the linear trapezoid method. The AUC extrapolated to infinity (AUC∞) was calculated from the following equation: AUC∞=AUCz+Cz/λ where Cz is the concentration at the last time point predicted by the linear regression. AUC∞ was normalized for dose (mg/kg) and presented as AUC∞/Dose. Mean residence time (MRT), when the drug is administered by infusion is described by the following equation: MRT=(AUMC/AUC)−(TI)/2 Mean residence time after i.v. bolus administration is described by the following equation: MRT=(AUMC/AUC) where AUMC is the area under the first moment curve and TI is the length of infusion. Plasma clearance (CL), and the apparent volume of distribution at steady state (Vss) were calculated from the following equations: CL=Dose/AUC∞ Vss=MRT×CL
In 14-day multiple dose pharmacokinetic studies, the NOAEL was 15 mg/kg/day in rats and 25 mg/kg/day in rabbits. In a 28-day study in monkeys the NOAEL was 25 mg/kg/day. Cmax and AUC observed following the last dose at the NOAEL in the multiple dose toxicity studies and the ratios of these values to those observed in the Phase I and II studies for the 150 mg dose are shown in Table 7.

[2] = 2nd Phase I study, single i.v. dose 48 or 150 mg, healthy male volunteers; assay type: in vivo, human; conditions: for AUC∞/Dose: normalized for dose (mg/kg); for clearance / Cmax / MRT / AUC / AUC(0-inf) / half-life / Vd: male, human, plasma; for Vd: read-out: Vss
Experimental: as §1
A second human Phase I study involving 24 healthy male volunteers was carried out to compare the pharmacokinetics of dexanabinol following a single i.v. dose of 48 mg or 150 mg. The subjects were divided into two groups of 12 subjects each. Each group was premedicated with ATOSIL® 25 mg (Promethazine H1 blocker), and ZANTAC® 50 mg (Ranitidine H2 blocker) intravenously, followed 15 minutes later by a single short intravenous infusion of dexanabinol lasting 15 minutes. Blood samples for pharmacokinetic assays for dexanabinol were collected immediately before premedication (T=0), immediately after dosing (T=0+) (at the end of the infusion), at 5, 10, 20, 30, 45, and 60 min, and 2, 4, 6, 8, 12, 16, 24, 48, 72 and 96 hr post-dosing. Blood was also collected from four subjects from group 2 ([…]) on Days 6, 10 and 14. For both dose levels, initial rapid declines in plasma concentration followed by a progressively slower decline were observed.
Pharmacokinetic parameters were estimated by non-compartmental methods up to 96 hr post-infusion, using WinNonlin Professional version 3.2 (Pharsight Corp., Mountain View, Calif., USA).

[3] = ocular toxicity, topical instillation for five days four times daily; assay type: in vivo, rabbits; conditions: dexanabinol in SME, slit lamp
Experimental: Ocular toxicity was tested as follows. Two groups of five animals each received topical instillation of dexanabinol in SME and blank SME for five days four times daily. The animals were examined daily with a slit lamp for ocular discharge, conjunctival hyperemia, corneal fluorescein staining and iris hyperemia. Results were scored on a 0.0-4.0 scale in 0.5 steps.

[4] = plasma, iv, rat female, 15 mg/kg i.v. daily, final dose Day 14 (NOAEL)
[5] = plasma, iv, rat male, 15 mg/kg i.v. daily, final dose Day 14 (NOAEL)
[6] = human Phase I, 150 mg single i.v., reference itself
[7] = iv, 48 mg single i.v. infusion, healthy volunteers, mean ± SE
[8] = iv, 48 mg single i.v. infusion, healthy volunteers, mean ± SE, up to 96 hr
[9] = iv, 150 mg single i.v. infusion, healthy volunteers, mean ± SE
[10] = iv, 150 mg single i.v. infusion, healthy volunteers, mean ± SE, up to 96 hr

## CCCCCCC(C)(C)c1cc(O)c2c(c1)OC(C)(C)[C@H]1CC=C(CO)C[C@H]21 [dexanabinol, 1,1-dimethylheptyl-(3S,4S)-7-hydroxy-Δ^6-tetrahydrocannabinol]
[1]; [4]
  AUC(0-inf): 58.6 µg·h/mL
  Cmax at 14 days: 17.4 µg/mL
[1]; [5]
  AUC(0-inf): 32.7 µg·h/mL
  Cmax: 30.2 µg/mL
[1]; rat female
  AUC∞ Ratio to Phase I: 18.3
  Cmax Ratio to Phase I: 3.5
  AUC∞ Ratio to Phase II: 39.5
  Cmax Ratio to Phase II: 8.8
[1]; rat male
  AUC∞ Ratio to Phase I: 10.2
  Cmax Ratio to Phase I: 6.0
  AUC∞ Ratio to Phase II: 22.1
  Cmax Ratio to Phase II: 15.4
[1]; rat, in vivo, iv, 14-day multiple dose i.v.
  NOAEL at 14 days: 15 mg/kg/day
[2]; 48 mg and 150 mg
  30 min plasma values as % of the end of infusion levels: about 11%
[2]; 48 mg single i.v. infusion, healthy volunteers, mean ± SE
  AUC∞/Dose: 78,137 ± 4,305 ng × min/ml
[2]; 150 mg single i.v. infusion, healthy volunteers, mean ± SE
  AUC∞/Dose: 93,408 ± 4,224 ng × min/ml
[2]; [6]
  AUC∞ Ratio to Phase I: 1.0
  Cmax Ratio to Phase I: 1.0
[2]; intravenous, 48 mg and 150 mg, read-out: Total plasma clearance (CL), average across the two dose groups
  clearance: 0.72 L/h/kg
[2]; intravenous, after the 48 mg dose (0.63 mg/kg), read-out: Maximum plasma concentrations (Cmax)
  Cmax: 1.23 µg/mL
[2]; intravenous, at 150 mg (2.05 mg/kg), read-out: Maximum plasma concentrations (Cmax)
  Cmax: 5 µg/mL
[2]; [7]
  MRT: 8.4 ± 0.5 h
  Vd: 6.6 ± 0.5 L/kg
[2]; [8]
  AUC: 0.811 µg·h/mL
  AUC(0-inf): 0.824 µg·h/mL
  half-life: 31.2 ± 3.6 h
[2]; iv, 48 mg single i.v. infusion, healthy volunteers, mean ± SE, up to 96 hr, read-out: Cmax
  Cmax: 1.23 µg/mL
[2]; iv, 48 mg single i.v. infusion, healthy volunteers, mean ± SE, read-out: CL
  clearance: 0.792 ± 0.042 L/h/kg
[2]; [9]
  MRT: 6.9 ± 0.4 h
  Vd: 4.5 ± 0.4 L/kg
[2]; [10]
  AUC: 3.18 µg·h/mL
  AUC(0-inf): 3.21 µg·h/mL
  half-life: 23.4 ± 1.8 h
[2]; iv, 150 mg single i.v. infusion, healthy volunteers, mean ± SE, up to 96 hr, read-out: Cmax
  Cmax: 5.01 µg/mL
[2]; iv, 150 mg single i.v. infusion, healthy volunteers, mean ± SE, read-out: CL
  clearance: 0.654 ± 0.03 L/h/kg
[2]; the two phase I studies
  safety in human subjects: safe, well tolerated and no psychomimetic side effects were detected
[3]
  conjunctival injection and discharge: mild conjunctival injection and discharge that did not significantly differ from SME-blank treated animals
  corneal staining, corneal opacities and iris hyperemia: did not occur in any of the animals

— US20070060636A1, “High enantiomeric purity dexanabinol for pharmaceutical compositions” (priority 2002, published 2007)
